The source of these data is publication PMC4457528, “Identification of Novel Small Molecule Inhibitors of Oncogenic RET Kinase” (PLoS ONE, 2015).

Each structure is given as a SMILES string. Like-named read-outs stand apart in the source and are kept apart here.

Common to all, as to experiment: KinomeScan kinase panel, single concentration 10 µM
Holding throughout (type): binding

Experiment [1] has as its target T1, KinomeScan kinase panel (Homo sapiens, UniProt P00519, T315I).
T1 construct: purchased DiscoveRx (KinomeScan)
The note with it: 10 µM, read-out: score (%).

Experiment [2] deals with T2, KinomeScan kinase panel (Homo sapiens, UniProt P07947).
T2 construct: purchased DiscoveRx (KinomeScan)
T2 sequence (P07947 whole entry): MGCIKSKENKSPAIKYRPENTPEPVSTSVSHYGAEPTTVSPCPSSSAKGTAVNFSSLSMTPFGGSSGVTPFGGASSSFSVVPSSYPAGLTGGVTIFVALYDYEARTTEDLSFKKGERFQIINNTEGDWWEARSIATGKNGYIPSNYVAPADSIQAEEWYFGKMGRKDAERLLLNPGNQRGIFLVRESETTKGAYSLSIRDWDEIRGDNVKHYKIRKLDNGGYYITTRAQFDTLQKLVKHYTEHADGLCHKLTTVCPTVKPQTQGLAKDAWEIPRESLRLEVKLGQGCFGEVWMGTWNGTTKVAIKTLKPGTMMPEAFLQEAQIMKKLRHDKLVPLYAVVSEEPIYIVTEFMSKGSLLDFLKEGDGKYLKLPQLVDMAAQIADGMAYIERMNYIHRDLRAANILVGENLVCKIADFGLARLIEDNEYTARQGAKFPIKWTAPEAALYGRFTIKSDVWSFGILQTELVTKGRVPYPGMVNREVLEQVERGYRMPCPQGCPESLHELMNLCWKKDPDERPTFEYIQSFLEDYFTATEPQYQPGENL
The note with it: kinase YES; 10 µM; read-out: score (%).

Experiment [3] deals with T3, KinomeScan kinase panel (Homo sapiens, UniProt P22607).
T3 construct: purchased DiscoveRx (KinomeScan)
T3 sequence (P22607 23-806): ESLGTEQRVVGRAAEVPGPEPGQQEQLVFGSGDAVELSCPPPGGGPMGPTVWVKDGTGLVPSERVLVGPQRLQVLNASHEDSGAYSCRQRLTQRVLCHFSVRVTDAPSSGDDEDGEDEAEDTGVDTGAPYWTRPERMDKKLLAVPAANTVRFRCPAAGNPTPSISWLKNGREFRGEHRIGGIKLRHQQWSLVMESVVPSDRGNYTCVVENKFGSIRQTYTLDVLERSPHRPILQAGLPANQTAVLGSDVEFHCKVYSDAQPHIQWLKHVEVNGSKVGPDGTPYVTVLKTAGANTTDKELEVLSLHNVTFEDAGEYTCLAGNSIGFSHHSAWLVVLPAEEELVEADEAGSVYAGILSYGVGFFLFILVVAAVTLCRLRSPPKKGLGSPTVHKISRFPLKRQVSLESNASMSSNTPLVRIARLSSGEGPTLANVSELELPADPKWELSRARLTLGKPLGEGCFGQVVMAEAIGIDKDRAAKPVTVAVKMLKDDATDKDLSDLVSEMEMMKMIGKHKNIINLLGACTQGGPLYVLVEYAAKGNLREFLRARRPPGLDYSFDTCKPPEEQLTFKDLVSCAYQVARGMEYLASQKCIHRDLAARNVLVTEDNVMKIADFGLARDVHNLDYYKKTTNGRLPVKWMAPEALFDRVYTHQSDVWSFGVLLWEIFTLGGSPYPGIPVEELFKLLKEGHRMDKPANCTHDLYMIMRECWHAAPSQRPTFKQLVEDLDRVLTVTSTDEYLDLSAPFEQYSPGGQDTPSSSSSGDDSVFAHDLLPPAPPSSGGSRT
The note with it: FGFR3, 10 µM; read-out: score (%).

For experiment [4], the target named is T4, KinomeScan kinase panel (Homo sapiens, UniProt P54760).
T4 construct: purchased DiscoveRx (KinomeScan)
T4 sequence (P54760 16-987): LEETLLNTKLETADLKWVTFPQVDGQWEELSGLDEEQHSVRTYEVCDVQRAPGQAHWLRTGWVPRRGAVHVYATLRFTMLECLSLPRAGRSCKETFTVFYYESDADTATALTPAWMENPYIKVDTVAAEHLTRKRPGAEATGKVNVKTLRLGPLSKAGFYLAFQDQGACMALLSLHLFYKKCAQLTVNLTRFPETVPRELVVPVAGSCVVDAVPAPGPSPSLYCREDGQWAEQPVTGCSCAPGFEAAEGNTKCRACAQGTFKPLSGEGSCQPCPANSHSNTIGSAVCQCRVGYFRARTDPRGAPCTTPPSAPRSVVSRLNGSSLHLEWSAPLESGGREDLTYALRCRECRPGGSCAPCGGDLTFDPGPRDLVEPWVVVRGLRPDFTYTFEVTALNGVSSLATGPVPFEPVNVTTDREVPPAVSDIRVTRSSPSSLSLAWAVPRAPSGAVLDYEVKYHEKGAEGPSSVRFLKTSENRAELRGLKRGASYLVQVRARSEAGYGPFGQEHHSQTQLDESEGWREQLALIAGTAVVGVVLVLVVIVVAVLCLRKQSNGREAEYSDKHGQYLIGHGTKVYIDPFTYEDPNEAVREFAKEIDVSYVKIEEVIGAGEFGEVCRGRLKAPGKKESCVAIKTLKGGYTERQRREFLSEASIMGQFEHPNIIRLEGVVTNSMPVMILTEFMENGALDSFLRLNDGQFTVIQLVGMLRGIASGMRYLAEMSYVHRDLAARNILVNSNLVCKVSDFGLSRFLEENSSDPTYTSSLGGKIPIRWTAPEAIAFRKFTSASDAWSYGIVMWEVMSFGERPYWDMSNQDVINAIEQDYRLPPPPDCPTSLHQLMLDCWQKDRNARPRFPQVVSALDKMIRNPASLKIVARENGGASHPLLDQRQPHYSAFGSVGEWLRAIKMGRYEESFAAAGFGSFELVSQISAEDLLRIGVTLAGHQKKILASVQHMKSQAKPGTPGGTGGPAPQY
The note with it: EPHB4, 10 µM; read-out: score (%).

The target of experiment [5] is T5, KinomeScan kinase panel (Homo sapiens, UniProt Q8IWQ3).
T5 construct: purchased DiscoveRx (KinomeScan)
T5 sequence (Q8IWQ3 1-736): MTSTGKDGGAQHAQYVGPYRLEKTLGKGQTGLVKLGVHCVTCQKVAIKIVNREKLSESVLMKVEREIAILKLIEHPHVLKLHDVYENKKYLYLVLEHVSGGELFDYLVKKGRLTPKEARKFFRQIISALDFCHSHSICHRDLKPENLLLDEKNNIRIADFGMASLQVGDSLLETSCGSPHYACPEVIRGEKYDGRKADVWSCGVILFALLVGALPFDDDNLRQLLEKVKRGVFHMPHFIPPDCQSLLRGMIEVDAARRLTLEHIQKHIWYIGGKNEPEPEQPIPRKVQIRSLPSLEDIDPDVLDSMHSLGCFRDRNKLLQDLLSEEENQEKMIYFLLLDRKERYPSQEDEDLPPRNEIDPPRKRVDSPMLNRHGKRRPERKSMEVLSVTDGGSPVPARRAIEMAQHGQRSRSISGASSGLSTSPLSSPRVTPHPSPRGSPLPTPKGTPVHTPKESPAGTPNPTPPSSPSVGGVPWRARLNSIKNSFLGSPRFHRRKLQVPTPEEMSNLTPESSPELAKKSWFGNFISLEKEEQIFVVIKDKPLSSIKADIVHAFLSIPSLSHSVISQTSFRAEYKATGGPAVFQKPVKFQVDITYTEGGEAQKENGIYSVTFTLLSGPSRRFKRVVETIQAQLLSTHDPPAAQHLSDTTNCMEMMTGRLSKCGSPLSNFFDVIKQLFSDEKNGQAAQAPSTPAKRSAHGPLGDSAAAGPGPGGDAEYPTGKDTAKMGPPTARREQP
Conditions: BRSK2, 10 µM; read-out: score (%).

In experiment [6] the target is T6, KinomeScan kinase panel (Homo sapiens, UniProt Q96NX5).
T6 construct: purchased DiscoveRx (KinomeScan)
T6 sequence (Q96NX5 whole entry): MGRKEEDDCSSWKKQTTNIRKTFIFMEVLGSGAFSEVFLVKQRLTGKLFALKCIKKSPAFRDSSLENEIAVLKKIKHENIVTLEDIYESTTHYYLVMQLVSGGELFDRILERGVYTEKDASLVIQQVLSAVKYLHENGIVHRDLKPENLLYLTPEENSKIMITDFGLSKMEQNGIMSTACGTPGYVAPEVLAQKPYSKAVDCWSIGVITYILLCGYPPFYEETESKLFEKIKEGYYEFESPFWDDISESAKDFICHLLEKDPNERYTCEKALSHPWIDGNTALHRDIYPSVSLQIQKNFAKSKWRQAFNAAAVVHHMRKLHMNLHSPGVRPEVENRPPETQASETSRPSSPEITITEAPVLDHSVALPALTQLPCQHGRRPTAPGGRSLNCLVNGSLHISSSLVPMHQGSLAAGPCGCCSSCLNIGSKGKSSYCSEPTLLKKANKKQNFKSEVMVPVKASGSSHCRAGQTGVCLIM
Conditions: CAMK1G, 10 µM; read-out: score (%).

Regarding `CCN1CCN(Cc2ccc(NC(=O)c3ccc(C)c(NC(=O)c4cncc(-c5cccs5)c4)c3)cc2C(F)(F)F)CC1` [ALW-II-41-27], the remaining binding at 10 µM is 0.7% on KinomeScan kinase panel [1] (ABL1(T315I)); 0.1% at KinomeScan kinase panel [2]; more than 30% on KinomeScan kinase panel [3]; 0.55% on KinomeScan kinase panel [4]; more than 30% on KinomeScan kinase panel [5]; more than 30% on KinomeScan kinase panel [6].
With `CCN1CCN(Cc2ccc(NC(=O)c3ccc(C)c(/C=C/c4cnc5[nH]ccc5c4Cl)c3)cc2C(F)(F)F)CC1` [HG-6-63-01, (E)-3-(2-(4-chloro-1H-pyrrolo[2,3-b]pyridin-5-yl)vinyl)-N-(4-((4-ethylpiperazin-1-yl)methyl)-3-(trifluoromethyl)phenyl)-4-methylbenzamide], the remaining binding at 10 µM on KinomeScan kinase panel [1] (ABL1(T315I)) was 0%; on KinomeScan kinase panel [2], 0.85%; at KinomeScan kinase panel [3] it was 2.4%; at KinomeScan kinase panel [4] it was 5.7%; at KinomeScan kinase panel [5] it was more than 30%; at KinomeScan kinase panel [6], more than 30%.
Turning to `CCN1CCN(Cc2ccc(NC(=O)c3ccc(C)c(C#Cc4cccnc4)c3)cc2C(F)(F)F)CC1` [XMD15-44], the remaining binding at 10 µM at KinomeScan kinase panel [1] (ABL1(T315I)-nonphosphorylated) was 2.8%; on KinomeScan kinase panel [1] (ABL1(T315I)-phosphorylated), 2.6%; at KinomeScan kinase panel [2], 0.1%; on KinomeScan kinase panel [3] it was 0.3%; on KinomeScan kinase panel [4] it was 1.6%; on KinomeScan kinase panel [5], more than 30%. In addition, the remaining binding at 10 µM on KinomeScan kinase panel [6] is more than 30%.
